Data taken from patent US20020147232A1 (priority 2000, published 2002).

Tests used:
[1] = system: blood pressure; details: cited from earlier work
[2] = Tsutsui, n = 5 healthy volunteers, label = administered drug, cited from earlier work
[3] = system: blood pressure; details: oral single dose; cited from earlier work
[4] = system: pilomotor reaction; details: oral, seven healthy volunteers; cited from earlier work
[5] = Stability of desglymidodrine (calibration curve of desglymidodrine); type: physicochemical
[6] = Stability of desglymidodrine in solution (comparison of peak areas); type: physicochemical; details: for 0 days (peak area), autoclave series: before autoclave
Text: The tablets were subject to stability testning. […] The following initial results were obtained:
Stability of desglymidodrinein solution
Based on comparison of peak areas

[7] = solution in Buffer pH 7.4, 0 days

## COc1ccc(OC)c(C(O)CNC(=O)CN)c1 (stereo not drawn) [midodrine, 2-amino-N-[2-(2,5-dimethoxyphenyl)-2-hydroxyethyl]-acetamide, reference compound]
[1]; intravenous
  intravenous dose as potent as 5 mg desglymidodrine i.v. with respect to increase of blood pressure: 20 to 25 mg
[2]; analyte midodrine
  Tmax midodrine: 1.4 ± 0.2 h
[3]
  persistence of pressor effect: 3 to 6 h
  time until pressor effect is manifest: 20 to 90 min
[4]
  duration of effect (pilomotor reaction): 150 (30-240) min
  time to occurrence of pilomotor reaction: 74 ± 29 min

## COc1ccc(OC)c(C(O)CN)c1 (stereo not drawn) [desglymidodrine, alpha-(aminomethyl)-2,5-dimethoxy-benzenemethanol]
[1]; intravenous injection of 5 mg
  duration of blood pressure effect: 3 to 4 min
[5]; Glass, 25° C./60% RH 1.2mioluxh
  content of desglymidodrine, 14 days: 103
[5]; Glass, 25° C./60% RH
  content of desglymidodrine, 0 days: 100
  content of desglymidodrine, 14 days: 103
  content of desglymidodrine, 21 days: 100
[5]; Glass, 40° C./75% RH
  content of desglymidodrine, 14 days: 102
  content of desglymidodrine, 21 days: 100
[5]; Open petri dish, 25° C./60% RH
  content of desglymidodrine, 0 days: 100
  content of desglymidodrine, 14 days: 102
  content of desglymidodrine, 21 days: 100
[5]; Open petri dish, 40° C./75% RH
  content of desglymidodrine, 14 days: 102
  content of desglymidodrine, 21 days: 97
[2]; analyte desglymidodrine
  Tmax desglymidodrine: 1.2 ± 0.2 h
[4]
  duration of effect (pilomotor reaction): 160 (135-185) min
  time to occurrence of pilomotor reaction: 34 ± 25 min
[6]; solution in 0.1N HCl, 0 days
  peak area, 0 days: 1548689
  0 days (peak area), autoclave series: 99
[6]; solution in 0.1N HCl, 7 days
  peak area, 7 days: 1516212
[6]; solution in 0.1N HCl, after autoclave 120° C.
  Autoclave 120° C.: 101
[6]; [7]
  peak area, 0 days: 1341613
  0 days (peak area), autoclave series: 102
[6]; solution in Buffer pH 7.4, 7 days
  peak area, 7 days: 1289393
[6]; solution in Buffer pH 7.4, after autoclave 120° C.
  Autoclave 120° C.: 102
[6]; solution in Water, 0 days
  peak area, 0 days: 1582140
  0 days (peak area), autoclave series: 100
[6]; solution in Water, 7 days
  peak area, 7 days: 1601999
[6]; solution in Water, after autoclave 120° C.
  Autoclave 120° C.: 100
